Measured values published in patent US20240382629A1, “HETEROBIVALENT AND HOMOBIVALENT AGENTS TARGETING FIBROBLAST ACTIVATION PROTEIN ALPHA AND/OR PROSTATE-SPECIFIC MEMBRANE ANTIGEN” (The Johns Hopkins University, priority 2021, published 2024).
Where “and” joins values, the source holds several entries; their conditions need not be identical. Equal entries are not always repeated.

Experiment: Biodistribution of [^18F]JHU1221785 with cold FAPI-04 blocker
Assay type: in vivo, mouse
Conditions: for % ID/g Bladder / % ID/g Blood / % ID/g Brain / % ID/g Fat / % ID/g Heart / % ID/g Kidney / % ID/g Large intestine / % ID/g Lung / % ID/g Muscle / % ID/g Pancreas / % ID/g Salivary gland / % ID/g Small intestine / % ID/g Spleen / % ID/g Stomach / % ID/g Tumor: single mouse
[1] = + Blocker Cold FAPI-04 (10 nmole), 60 min

SMILES: N#C[C@@H]1CCCN1C(=O)CNC(=O)c1ccnc2ccc(OCCCNC(=O)[C@@H](CC(=O)O)NC(=O)[C@@H](CC(=O)O)NC(=O)c3ccc([18F])nc3)cc12 [[^18F]JHU1221785]
- % ID/g Mean Bladder (30 min): 2.81 % ID/g
- % ID/g Bladder (30 min): 0.93 % ID/g and 4.69 % ID/g
- % ID/g Mean Bladder (60 min): 0.84 % ID/g
- % ID/g Bladder (60 min): 0.76 % ID/g and 0.92 % ID/g
- % ID/g Mean Bladder [1]: 0.45 % ID/g
- % ID/g Bladder [1]: 0.23 % ID/g and 0.67 % ID/g
- % ID/g Mean Blood (30 min): 4.94 % ID/g
- % ID/g Blood (30 min): 5.98 % ID/g and 3.90 % ID/g
- % ID/g Mean Blood (60 min): 3.57 % ID/g
- % ID/g Blood (60 min): 2.56 % ID/g and 4.57 % ID/g
- % ID/g Mean Blood [1]: 4.68 % ID/g
- % ID/g Blood [1]: 0.11 % ID/g and 9.26 % ID/g
- % ID/g Mean Brain (30 min): 0.14 % ID/g
- % ID/g Brain (30 min): 0.14 % ID/g and 0.15 % ID/g
- % ID/g Mean Brain (60 min): 0.10 % ID/g
- % ID/g Brain (60 min): 0.09 % ID/g and 0.12 % ID/g
- % ID/g Mean Brain [1]: 0.03 % ID/g
- % ID/g Brain [1]: 0.02 % ID/g and 0.04 % ID/g
- % ID/g Mean Fat (30 min): 0.20 % ID/g
- % ID/g Fat (30 min): 0.21 % ID/g and 0.19 % ID/g
- % ID/g Mean Fat (60 min): 0.22 % ID/g
- % ID/g Fat (60 min): 0.22 % ID/g and 0.21 % ID/g
- % ID/g Mean Fat [1]: 0.12 % ID/g
- % ID/g Fat [1]: 0.03 % ID/g and 0.21 % ID/g
- % ID/g Mean Femur (30 min): 2.61 % ID/g
- % ID/g Mean Femur (60 min): 2.07 % ID/g
- % ID/g Mean Femur [1]: 1.51 % ID/g
- % ID/g Mean Heart (30 min): 2.26 % ID/g
- % ID/g Heart (30 min): 2.51 % ID/g and 2.01 % ID/g
- % ID/g Mean Heart (60 min): 1.56 % ID/g
- % ID/g Heart (60 min): 1.38 % ID/g and 1.73 % ID/g
- % ID/g Mean Heart [1]: 0.07 % ID/g
- % ID/g Heart [1]: 0.06 % ID/g and 0.07 % ID/g
- % ID/g Mean Kidney (30 min): 2.47 % ID/g
- % ID/g Kidney (30 min): 1.60 % ID/g and 3.33 % ID/g
- % ID/g Mean Kidney (60 min): 0.91 % ID/g
- % ID/g Kidney (60 min): 0.79 % ID/g and 1.04 % ID/g
- % ID/g Mean Kidney [1]: 0.46 % ID/g
- % ID/g Kidney [1]: 0.41 % ID/g and 0.51 % ID/g
- % ID/g Mean Large intestine (30 min): 0.72 % ID/g
- % ID/g Large intestine (30 min): 0.58 % ID/g and 0.86 % ID/g
- % ID/g Mean Large intestine (60 min): 0.69 % ID/g
- % ID/g Large intestine (60 min): 0.61 % ID/g and 0.78 % ID/g
- % ID/g Mean Large intestine [1]: 0.20 % ID/g
- % ID/g Large intestine [1]: 0.08 % ID/g and 0.33 % ID/g
- % ID/g Mean Liver (30 min): 7.32 % ID/g
- % ID/g Mean Liver (60 min): 7.84 % ID/g
- % ID/g Mean Liver [1]: 9.89 % ID/g
- % ID/g Mean Lung (30 min): 2.65 % ID/g
- % ID/g Lung (30 min): 2.77 % ID/g and 2.53 % ID/g
- % ID/g Mean Lung (60 min): 2.18 % ID/g
- % ID/g Lung (60 min): 1.70 % ID/g and 2.65 % ID/g
- % ID/g Mean Lung [1]: 0.17 % ID/g
- % ID/g Lung [1]: 0.13 % ID/g and 0.20 % ID/g
- % ID/g Mean Muscle (30 min): 0.96 % ID/g
- % ID/g Muscle (30 min): 0.81 % ID/g and 1.12 % ID/g
- % ID/g Mean Muscle (60 min): 0.98 % ID/g
- % ID/g Muscle (60 min): 1.06 % ID/g and 0.89 % ID/g
- % ID/g Mean Muscle [1]: 0.06 % ID/g
- % ID/g Muscle [1]: 0.04 % ID/g and 0.07 % ID/g
- % ID/g Mean Pancreas (30 min): 2.31 % ID/g
- % ID/g Pancreas (30 min): 1.92 % ID/g and 2.71 % ID/g
- % ID/g Mean Pancreas (60 min): 2.07 % ID/g
- % ID/g Pancreas (60 min): 1.96 % ID/g and 2.17 % ID/g
- % ID/g Mean Pancreas [1]: 0.13 % ID/g
- % ID/g Pancreas [1]: 0.05 % ID/g and 0.22 % ID/g
- % ID/g Mean Salivary gland (30 min): 2.93 % ID/g
- % ID/g Salivary gland (30 min): 2.81 % ID/g and 3.05 % ID/g
- % ID/g Mean Salivary gland (60 min): 3.45 % ID/g
- % ID/g Salivary gland (60 min): 2.17 % ID/g and 4.73 % ID/g
- % ID/g Mean Salivary gland [1]: 0.05 % ID/g
- % ID/g Salivary gland [1]: 0.04 % ID/g and 0.06 % ID/g
- % ID/g Mean Small intestine (30 min): 2.49 % ID/g
- % ID/g Small intestine (30 min): 2.60 % ID/g and 2.38 % ID/g
- % ID/g Mean Small intestine (60 min): 1.83 % ID/g
- % ID/g Small intestine (60 min): 1.65 % ID/g and 2.01 % ID/g
- % ID/g Mean Small intestine [1]: 3.54 % ID/g
- % ID/g Small intestine [1]: 0.88 % ID/g and 6.19 % ID/g
- % ID/g Mean Spleen (30 min): 1.00 % ID/g
- % ID/g Spleen (30 min): 1.03 % ID/g and 0.97 % ID/g
- % ID/g Mean Spleen (60 min): 0.93 % ID/g
- % ID/g Spleen (60 min): 0.78 % ID/g and 1.09 % ID/g
- % ID/g Mean Spleen [1]: 0.16 % ID/g
- % ID/g Spleen [1]: 0.08 % ID/g and 0.25 % ID/g
- % ID/g Mean Stomach (30 min): 0.82 % ID/g
- % ID/g Stomach (30 min): 0.72 % ID/g and 0.92 % ID/g
- % ID/g Mean Stomach (60 min): 0.71 % ID/g
- % ID/g Stomach (60 min): 0.60 % ID/g and 0.81 % ID/g
- % ID/g Mean Stomach [1]: 0.16 % ID/g
- % ID/g Stomach [1]: 0.09 % ID/g and 0.23 % ID/g
- % ID/g Mean Tumor (30 min): 1.24 % ID/g
- % ID/g Tumor (30 min): 1.14 % ID/g and 1.34 % ID/g
- % ID/g Mean Tumor (60 min): 2.23 % ID/g
- % ID/g Tumor (60 min): 2.59 % ID/g and 1.47 % ID/g
- % ID/g Mean Tumor [1]: 0.10 % ID/g
- % ID/g Tumor [1]: 0.08 % ID/g and 0.11 % ID/g
